Measured values from patent US20260070945A1, “MACROCYCLIC IMMUNOMODULATORS” (Bristol-Myers Squibb Company, priority 2022, published 2026).
*1 amine or outer side, *2 acyl side, *3 side chain or, on linkers, in order; H or OH if unused. Where a SMILES comes first, the peptide text is derived from it. Bridges are numbered along the chain shown (N, C = ends). [ ]: non-standard residue; d: D form. The star is where a group is joined. ξ: configuration not given here. Phe(3-CF3) = N[C@@H](Cc1cccc(C(F)(F)F)c1)C(=O)O; X8 = O=C(O)COc1ccc(C[C@H](N[*:1])C(=O)[*:2])cn1; Phe(4-COOH) = N[C@@H](Cc1ccc(C(=O)O)cc1)C(=O)O; Bip = N[C@@H](Cc1ccc(-c2ccccc2)cc1)C(=O)O; Phe(4-NH2) = Nc1ccc(C[C@H](N)C(=O)O)cc1; Phe(3-Me) = Cc1cccc(C[C@H](N)C(=O)O)c1; NH(CH2)8CO = O=C(CCCCCCCCN[*:1])[*:2]; βAsp = O=C(O)[C@H](CC(=O)[*:2])N[*:1]; NH(CH2)12COOH = O=C(O)CCCCCCCCCCCCN*; Val(3-OH) = CC(C)(O)[C@H](N)C(=O)O; 4Pal = N[C@@H](Cc1ccncc1)C(=O)O; 3Thi = N[C@@H](Cc1ccsc1)C(=O)O; Cha = N[C@@H](CC1CCCCC1)C(=O)O; Cit = NC(=O)NCCC[C@H](N)C(=O)O; Thr(3ξ) = CC(O)[C@H](N)C(=O)O; Carboxymethyl = O=C(O)C*; NMeA = CN[C@@H](C)C(=O)O; Orn = NCCC[C@H](N)C(=O)O; Aun = NCCCCCCCCCCC(=O)O; Dab = NCC[C@H](N)C(=O)O; Dap = NC[C@H](N)C(=O)O; AEEA = NCCOCCOCC(=O)O

biological target: T1, PD-1/PD-L1 interaction (PE-labeled human PD-L1-Ig binding to Jurkat cell line over-expressing human PD-1) (Homo sapiens, UniProt Q15116); assay: Jurkat-PD-1 Cell Binding High-Content Screening Assay (CBA); details: Jurkat-hPD-1 cells, PE-labeled PD-L1-Ig 20 nM final; read-out: Jurkat HPD1 PDL1 IC50
T1 construct: expressed in transfected cells; host or cells: Jurkat
Outline: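 Read-out: high-content imaging of cell-bound PE fluorescence, with Hoechst 33342 nuclear counterstain after paraformaldehyde fixation. Before labeled ligand (20 nM final, 1 h) was added, compound sat on the cells for 2 h at 37 °C in DMEM/10% FCS.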

T1 sequence (Q15116 25-288): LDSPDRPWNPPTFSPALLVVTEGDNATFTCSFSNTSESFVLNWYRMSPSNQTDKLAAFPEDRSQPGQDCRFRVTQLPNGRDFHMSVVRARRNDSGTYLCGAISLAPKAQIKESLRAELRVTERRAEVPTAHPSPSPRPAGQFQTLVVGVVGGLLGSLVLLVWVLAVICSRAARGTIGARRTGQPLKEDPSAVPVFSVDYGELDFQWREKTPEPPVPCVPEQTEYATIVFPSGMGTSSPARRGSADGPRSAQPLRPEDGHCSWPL

Row | IC50 [nM] | SMILES
1 | 237 | CC(C)C[C@@H]1NC(=O)[C@H](Cc2c[nH]c3ccccc23)NC(=O)[C@H](CC(=O)O)NC(=O)[C@H](Cc2ccc(OCC(=O)O)cc2)NC(=O)[C@H](CCCNC(N)=O)NC(=O)CSC[C@@H](C(=O)N[C@@H](CC(N)=O)C(=O)N[C@@H](CC(=O)NCCOCCOCC(=O)NCCCCCCCCCCC(=O)O)C(=O)O)NC(=O)[C@H](CO)NC(=O)[C@H](C(C)C)NC(=O)[C@H](CC2CCCCC2)NC(=O)[C@H](CC(N)=O)NC(=O)[C@@H](CC(C)C)NC(=O)[C@H](C)N(C)C(=O)[C@H](C(C)C)NC(=O)[C@H](Cc2ccc(-c3ccccc3)cc2)NC1=O [Example 2026] ({CH2CO}-[Cit]Y(Carboxymethyl)DWL[Bip]V[NMeA][dL]N[Cha]VSCN[βAsp][AEEA][Aun]-OH; thioether N-14)
2 | 39.2 | CC(C)C[C@@H]1NC(=O)[C@H](Cc2c[nH]c3ccccc23)NC(=O)[C@H](CC(=O)O)NC(=O)[C@H](Cc2ccncc2)NC(=O)[C@H](Cc2ccc(OCC(=O)O)nc2)NC(=O)CSC[C@@H](C(=O)N[C@@H](CCN)C(=O)NCCCCCCCCCCC(=O)O)NC(=O)[C@H](CCC(N)=O)NC(=O)[C@H](C(C)C)NC(=O)[C@H](CC2CCCCC2)NC(=O)[C@H](CCN)NC(=O)[C@@H](CC(C)C)NC(=O)[C@H](C)N(C)C(=O)[C@H](C(C)C)NC(=O)[C@H](Cc2ccc(-c3ccccc3)cc2)NC1=O [Example 1343] ({CH2CO}-[X8][4Pal]DWL[Bip]V[NMeA][dL][Dab][Cha]VQC[Dab][Aun]-OH; thioether N-14)
3 | 172 | Cc1cccc(C[C@@H]2NC(=O)[C@H](CC(=O)O)NC(=O)[C@H](Cc3ccc(OCC(=O)O)cc3)NC(=O)[C@H](CN)NC(=O)CSC[C@@H](C(=O)N[C@@H](CCC(=O)O)C(=O)NCCCCCCCCCCC(=O)O)NC(=O)[C@H](CO)NC(=O)[C@H](C(C)C)NC(=O)[C@H](CC(C)C)NC(=O)[C@H](CC(N)=O)NC(=O)[C@@H](CC(C)C)NC(=O)[C@H](C)N(C)C(=O)[C@H](C(C)C)NC(=O)[C@H](Cc3ccc(-c4ccccc4)cc3)NC(=O)[C@H](CC(C)C)NC2=O)c1 [Example 1068] ({CH2CO}-[Dap]Y(Carboxymethyl)D[Phe(3-Me)]L[Bip]V[NMeA][dL]NLVSCE[Aun]-OH; thioether N-14)
4 | 35.3 | CC(=O)NCCCC[C@@H]1NC(=O)[C@H](Cc2ccc(-c3ccccc3)cc2)NC(=O)[C@H](CC(C)C)NC(=O)[C@H](Cc2cccc(C)c2)NC(=O)[C@H](CC(=O)O)NC(=O)[C@H](Cc2ccc(C(=O)O)cc2)NC(=O)[C@H](Cc2ccc(OCC(=O)O)cc2)NC(=O)CSC[C@@H](C(=O)NCCOCCOCC(=O)NCCCCCCCCCCC(=O)O)NC(=O)[C@H](C(C)O)NC(=O)[C@H](C(C)C)NC(=O)[C@H](CC2CCCCC2)NC(=O)[C@H](CCN)NC(=O)[C@@H](CC(C)C)NC(=O)[C@H](C)N(C)C1=O (stereo partly drawn) [Example 2282] ({CH2CO}-Y(Carboxymethyl)[Phe(4-COOH)]D[Phe(3-Me)]L[Bip]K(Ac)[NMeA][dL][Dab][Cha]V[Thr(3ξ)]C[AEEA][Aun]-OH; thioether N-14)
5 | 11.2 | CC(C)C[C@H]1NC(=O)[C@H](C)N(C)C(=O)[C@H](CCC(N)=O)NC(=O)[C@H](Cc2ccc(-c3ccccc3)cc2)NC(=O)[C@H](Cc2ccc(C(=O)O)cc2)NC(=O)[C@H](Cc2cccc(C(F)(F)F)c2)NC(=O)[C@H](CC(=O)O)NC(=O)[C@H](Cc2ccc(OCC(=O)O)cc2)NC(=O)[C@H](Cc2ccc(C(=O)O)cc2)NC(=O)CSC[C@@H](C(=O)N[C@@H](CCN)C(=O)NCCCCCCCCCCCCC(=O)O)NC(=O)[C@H](Cc2c[nH]cn2)NC(=O)[C@H](C(C)(C)O)NC(=O)[C@H](CC2CCCCC2)NC(=O)[C@H](CCN)NC1=O [Example 1145] ({CH2CO}-[Phe(4-COOH)]Y(Carboxymethyl)D[Phe(3-CF3)][Phe(4-COOH)][Bip]Q[NMeA][dL][Dab][Cha][Val(3-OH)]HC[Dab]-{NH(CH2)12COOH}; thioether N-14)

same assay, conditions: PE-labeled PD-L1-Ig 20 nM final, Jurkat-hPD-1 cells; read-out: Jurkat HPD1 PDL1 IC50

Row | IC50 [nM] | SMILES
6 | 14.4 | Cc1cccc(C[C@@H]2NC(=O)[C@H](CC(=O)O)NC(=O)[C@H](Cc3ccc(OCC(=O)O)cc3)NC(=O)[C@H](Cc3ccsc3)NC(=O)CSC[C@@H](C(=O)N[C@@H](CCN)C(=O)NCCCCCCCCCCC(=O)O)NC(=O)[C@H](CO)NC(=O)[C@H](C(C)(C)O)NC(=O)[C@H](CC3CCCCC3)NC(=O)[C@H](CCN)NC(=O)[C@@H](CC(C)C)NC(=O)[C@H](C)N(C)C(=O)[C@H](Cc3ccc(C(=O)O)cc3)NC(=O)[C@H](Cc3ccc(-c4ccccc4)cc3)NC(=O)[C@H](Cc3ccc(C(=O)O)cc3)NC2=O)c1 [Example 2513] ({CH2CO}-[3Thi]Y(Carboxymethyl)D[Phe(3-Me)][Phe(4-COOH)][Bip][Phe(4-COOH)][NMeA][dL][Dab][Cha][Val(3-OH)]SC[Dab][Aun]-OH; thioether N-14)
7 | 9.7 | CC(C)C[C@H]1NC(=O)[C@H](C)N(C)C(=O)[C@H](Cc2ccc(C(=O)O)cc2)NC(=O)[C@H](Cc2ccc(-c3ccccc3)cc2)NC(=O)[C@H](Cc2ccc(C(=O)O)cc2)NC(=O)[C@H](Cc2cccc(C(F)(F)F)c2)NC(=O)[C@H](CC(=O)O)NC(=O)[C@H](Cc2ccc(C(=O)O)cc2)NC(=O)[C@H](C(C)O)NC(=O)CSC[C@@H](C(=O)N[C@@H](CCN)C(=O)NCCCCCCCCCCC(=O)O)NC(=O)[C@H](C(C)O)NC(=O)[C@H](C(C)(C)O)NC(=O)[C@H](CC2CCCCC2)NC(=O)[C@H](CCN)NC1=O (stereo partly drawn) [Example 2573] ({CH2CO}-[Thr(3ξ)][Phe(4-COOH)]D[Phe(3-CF3)][Phe(4-COOH)][Bip][Phe(4-COOH)][NMeA][dL][Dab][Cha][Val(3-OH)][Thr(3ξ)]C[Dab][Aun]-OH; thioether N-14)
8 | 9.1 | CC(=O)NCCCC[C@@H]1NC(=O)[C@H](C(C)(C)O)NC(=O)[C@H](CC2CCCCC2)NC(=O)[C@H](CCN)NC(=O)[C@@H](CC(C)C)NC(=O)[C@H](C)N(C)C(=O)[C@H](CCCNC(=N)N)NC(=O)[C@H](Cc2ccc(-c3ccccc3)cc2)NC(=O)[C@H](Cc2ccc(C(=O)O)cc2)NC(=O)[C@H](Cc2cccc(C(F)(F)F)c2)NC(=O)[C@H](CC(=O)O)NC(=O)[C@H](Cc2ccc(OCC(=O)O)cc2)NC(=O)[C@H](Cc2ccc(OCC(=O)O)cc2)NC(=O)CSC[C@@H](C(=O)N[C@@H](CCN)C(=O)NCCCCCCCCCCCCC(=O)O)NC1=O [Example 2638] ({CH2CO}-Y(Carboxymethyl)Y(Carboxymethyl)D[Phe(3-CF3)][Phe(4-COOH)][Bip]R[NMeA][dL][Dab][Cha][Val(3-OH)]K(Ac)C[Dab]-{NH(CH2)12COOH}; thioether N-14)
9 | 6.1 | Cc1cccc(C[C@@H]2NC(=O)[C@H](CC(=O)O)NC(=O)[C@H](Cc3ccc(N)cc3)NC(=O)[C@H]([C@@H](C)O)NC(=O)CSC[C@@H](C(=O)N[C@@H](CCN)C(=O)NCCCCCCCCC(=O)NCCCCCCCCCCC(=O)O)NC(=O)[C@H](CCCN)NC(=O)[C@H](C(C)C)NC(=O)[C@H](CC3CCCCC3)NC(=O)[C@H](CCN)NC(=O)[C@@H](CC(C)C)NC(=O)[C@H](C)N(C)C(=O)[C@H](Cc3ccc(N)cc3)NC(=O)[C@H](Cc3ccc(-c4ccccc4)cc3)NC(=O)[C@H](Cc3ccc(N)cc3)NC2=O)c1 [Example 2689] ({CH2CO}-T[Phe(4-NH2)]D[Phe(3-Me)][Phe(4-NH2)][Bip][Phe(4-NH2)][NMeA][dL][Dab][Cha]V[Orn]C[Dab][NH(CH2)8CO][Aun]-OH; thioether N-14)
